# Test results taken from patent US20170079278A1 (priority 2015, published 2017).
# How the values were obtained:
# [1] = system: Coquito (Cyperus rotundus); assay: Field trial atrazine +/- EPAC, weed control in corn; format: in vivo
# [2] = system: Mycosphaerella fijiensis; assay: Sensitivity test of ascospores (germination, germ tube elongation) to azoxystrobin +/- EPAC-F; format: cell-based; conditions: Black Sigatoka, banana crops
# Description: In a study in experimental conditions the effectiveness of EPAC-F was evaluated by a sensitivity test to Mycosphaerella fijiensis (from a banana farm in Santa Marta), causal agent of Black Sigatoka, following the recommendations of the Fungicide Resistance Action Committee's (FRAC) to strobilurin fungicides from.
# The test is based on measuring the length elongation ascospore germ tube that germinated in culture medium 2% agar, modified with a number of products made by mixing the adjuvant, EPAC-F and fungicide Liege 25 SC, whose active ingredient is Azoxystrobin 250 g/L. Then the following 11 treatments were evaluated are as follows:
# T1. Azoxystrobin 25% SC 100 at a dose of 400 cc/Ha. T2. Azoxystrobin 25 SC 50% at doses of 400 cc/Ha.+EPAC 10% T3. Azoxystrobin 25 SC 50% at doses of 400 cc/Ha.+EPAC 20% T4. Azoxystrobin 25 SC 70% at doses of 400 cc/Ha.+EPAC 10% T5. Azoxystrobin 25 SC 60% at doses of 400 cc/Ha.+EPAC 10% T1A. Azoxystrobin SC 25 50% at doses of 200 cc/Ha.+EPAC5% T2A. Azoxystrobin SC 25 50% at doses of 200 cc/Ha.+10% EPAC T3A. Azoxystrobin SC 25 50% at doses of 200 cc/Ha.+15% EPAC T4A. Azoxystrobin SC 25 25% at doses of 200 cc/Ha.+10% EPAC T5A. Azoxystrobin SC 25 25% at doses of 200 cc/Ha.+15% EPAC
# The control process involved the use of fungicide Amystar 50 WG with the active ingredient Azoxystrobin 500 g/L. This product is considered direct competition from […]. […]
# [3] = system: Paja de Zorro (Leptochloa filiformis); assay: Field trial butachlor +/- EPAC, weed control; format: in vivo; conditions: butachlor section
# [4] = system: Coffe Borer Beetle; assay: Field trial chlorpyrifos +/- EPAC, pest control in coffee fields; format: in vivo
# [5] = system: Paja de Zorro (Leptochloa filiformis); assay: Field trial clomazone +/- EPAC, weed control in rice fields; format: in vivo
# [6] = system: White Fly (Aleyrodidae); assay: Field trial cypermethrin +/- EPAC, pest control in tomato crops; format: in vivo
# [7] = system: Piñita (Murdania Nudiflora); assay: Field trial glyphosate +/- EPAC, weed control in rice; format: in vivo; conditions: A = chemical alone at 100%, B = reduced dose + EPAC
# [8] = system: Cortadera (Cortaderia Selloana); assay: as above; format: in vivo; conditions: A = 100% alone, B = reduced dose + EPAC
# [9] = system: Leptocloa; assay: as above; format: in vivo; conditions: A = 100% alone, B = reduced dose + EPAC
# [10] = system: Liendrepuerco (Echinochia Colonum); assay: as above; format: in vivo; conditions: A = 100% alone, B = reduced dose + EPAC
# [11] = system: Guardarocio (Digitaria Sanguinalis); assay: as above; format: in vivo; conditions: A = 100% alone, B = reduced dose + EPAC
# [12] = system: adult T. vaporariorum; White Fly (Aleyrodidae); assay: Methamidophos/EPAC-I on adult whitefly on tomato; format: in vivo, Trialeurodes vaporariorum; set-up: concentration or dose not given beside the values; conditions: tomato crops
# Description: The effectiveness of EPAC-I was assessed with adult T. vaporariorum under experimental conditions taking into account the percentage of mortality by direct and indirect contact with the insects.
# The completion of the performance test EPAC-I with adults of T. vaporariorum was carried out directly on whitefly adults collected from breeding individuals in the “Bio-Systems Center”. These were placed in a box with mesh which allows passage of the droplets in the spray. Product application was performed with an airbrush at a distance of 30 cm and a 45° angle on the application unit, achieving a uniform coverage with fine droplets. The quality was verified through application of a strip (2×2 cm) of water-sensitive paper.
# To assemble the test, from tomato plants we selected randomly 5 leaflets per treatment and then were sprayed and once dried, in each bags mesh were placed into which 10 adults whiteflies were placed, and each of these units was duly marked according to the assessed treatment. Tomato plants with the evaluation units were maintained in a room with controlled temperature (20±1° C.), relative humidity (70±10%) and photoperiod of 12 h. The evaluation design was completely randomized and readings from day one after application to day 10 were performed.
# [13] = system: Bledo (Amaranthus Albus); assay: Field trial oxadiazone +/- EPAC, weed control in rice fields; format: in vivo
# [14] = system: Corn; assay: Field trial paraquat +/- EPAC, crop dissecation; format: in vivo; conditions: A = 100% alone, B = 40% + EPAC 4%
# [15] = system: Falsa Caminadora (Ischaemum rugosum); assay: Field trial pendimethalin +/- EPAC, weed control in rice fields; format: in vivo
# [16] = system: White Fly (Aleyrodidae); assay: Field trial profenophos +/- EPAC, pest control in tomato crops; format: in vivo
smiles,measurement,setting,value
CCNc1nc(Cl)nc(NC(C)C)n1 [Atrazine],% of Weeds Controlled,[1]; 7 Days,93%
same,% of Weeds Controlled,[1]; 14 Days,90%
same,% of Weeds Controlled,[1]; 21 Days,90%
CO/C=C(\C(=O)OC)c1ccccc1Oc1cc(Oc2ccccc2C#N)ncn1 [Axozystrobin],Fungus Inhibition: % Ascospore Germination Inhibited,[2],24%
same,Fungus Inhibition: % Ascospore elongation Inhibition (>150 microm),[2],37%
CCCCOCN(C(=O)CCl)c1c(CC)cccc1CC [Butachlor],% of Weeds Controlled,[3]; 3 Days,93%
same,% of Weeds Controlled,[3]; 8 Days,100%
same,% of Weeds Controlled,[3]; 15 Days,100%
CCOP(=S)(OCC)Oc1nc(Cl)c(Cl)cc1Cl [Chlorpyrifos],% of Pest Controlled,[4]; 7 Days,88%
same,% of Pest Controlled,[4]; 14 Days,83%
same,% of Pest Controlled,[4]; 21 Days,73%
CC1(C)CON(Cc2ccccc2Cl)C1=O [Clomazone],% of Weeds Controlled,[5]; 3 Days,97%
same,% of Weeds Controlled,[5]; 8 Days,93%
same,% of Weeds Controlled,[5]; 15 Days,100%
CC1(C)C(C=C(Cl)Cl)C1C(=O)OC(C#N)c1cccc(Oc2ccccc2)c1 (stereo not shown) [Cypermethrin],% of Pest Controlled,[6]; 3 Days,90%
same,% of Pest Controlled,[6]; 8 Days,87%
same,% of Pest Controlled,[6]; 15 Days,76%
"O=C(O)CNCP(=O)(O)O [Glyphosate, N-phosphonomethyl-glycine]",% of Weeds Controlled,[7],83%
same,% of Weeds Controlled,[8],90%
same,% of Weeds Controlled,[9],100%
same,% of Weeds Controlled,[10],93%
same,% of Weeds Controlled,[11],82%
"COP(N)(=O)SC (stereo not shown) [Metamidhophos, O, S-dimethyl-phosphoramidothioate]",% of Pest Controlled,[12]; 1 Day,10%
same,% of Pest Controlled,[12]; 4 Days,30%
same,% of Pest Controlled,[12]; 6 Days,42%
same,% of Pest Controlled,[12]; 8 Days,46%
same,% of Pest Controlled,[12]; 10 Days,50%
CC(C)Oc1cc(-n2nc(C(C)(C)C)oc2=O)c(Cl)cc1Cl [Oxadiazone],% of Weeds Controlled,[13]; 3 Days,87%
same,% of Weeds Controlled,[13]; 8 Days,97%
same,% of Weeds Controlled,[13]; 15 Days,100%
C[n+]1ccc(-c2cc[n+](C)cc2)cc1 [Paraquat],% of Crop Dissecated,[14],100%
CCC(CC)Nc1c([N+](=O)[O-])cc(C)c(C)c1[N+](=O)[O-] [Pendimenthaline],% of Weeds Controlled,[15]; 3 Days,86.7%
same,% of Weeds Controlled,[15]; 8 Days,96.7%
same,% of Weeds Controlled,[15]; 15 Days,93%
CCCSP(=O)(OCC)Oc1ccc(Br)cc1Cl (stereo not shown) [Profenophos],% of Pest Controlled,[16]; 7 Days,92%
same,% of Pest Controlled,[16]; 12 Days,82%
same,% of Pest Controlled,[16]; 15 Days,75%
